Source: PMC7581224 (Journal of medicinal chemistry, 2020)

Tests used:
[1] = test system: MMPs; format: biochemical
[2] = test system: HEK293 cells
[3] = test system: BoNT/A; details: mouse, in vivo; cited from earlier work

Row | Compound | covalent inhibition [1] | cellular toxicity [2] | other results
1 | CS(=O)(=O)SCCCNC(=O)CC(CC(=O)NO)c1ccc(Cl)cc1Cl (stereo not drawn) [Compound 53, S-(3-(3-(2,4-dichlorophenyl)-5-(hydroxyamino)-5-oxopentanamido)propyl) methanesulfonothioate] | no covalent inhibition was observed | did not exhibit cellular toxicity | MMP inhibition [1]: inhibits MMPs significantly less than 32
2 | O=C(/C=C/c1ccc(Cl)cc1Cl)NO [Compound 7, 2,4-dichlorocinnamic hydroxamic acid] | – | – | rescued mice [3]: 16%; small molecule-associated toxicity [3]: no small molecule-associated toxicity
3 | CCCCCNC(=O)CC(CC(=O)NO)c1ccc(Cl)cc1Cl (centres unmarked) [Compound 59, 3-(2,4-dichlorophenyl)-N^1-hydroxy-N^5-pentylpentanediamide] | – | did not exhibit cellular toxicity | –
4 | CS(=O)(=O)SCCCCCN(O)C(=O)/C=C/c1ccc(Cl)cc1Cl [Compound 31, (E)-S-(5-(3-(2,4-dichlorophenyl)-N-hydroxyacrylamido)pentyl) methanesulfonothioate] | – | – | IC50 [2]: did not inhibit cells to the extent that an IC50 value could be calculated
5 | CS(=O)(=O)SCCCCCCN(O)C(=O)/C=C/c1ccc(Cl)cc1Cl [Compound 32, (E)-S-(6-(3-(2,4-dichlorophenyl)-N-hydroxyacrylamido)hexyl) methanesulfonothioate] | no covalent inhibition was observed | – | –
